# “Also recorded” adds a separate entry of the source.
# Assays:
# [1] = system: pAKT (Ser473); assay: pAKT (Ser473) western blot in SK-N-Be2 cells; type: cell-based, human; settings: growth factor induced
# Text: (§1) Membranes were blocked using Odyssey Blocking Buffer (LI-COR) for 1 hr at room temperature. […] Primary antibodies used in these studies include: MycN (CST; 1:500 dilution), Actin (SCBT; 1:2000 dil.), cMYC (CST; 1:500 dil.), pAKT (S473; CST; 1:500 dil.), AKT (CST; 1:2000), pP70 (T389; CST; 1:1000) P70 (CST; 1:1000).
# We first tested whether isopomiferin disrupted […] signaling in NBL by treating SK-N-Be2 cells to isopomiferin and blotting for pAKT abundance. Treatment with […] (EGF) induces pAKT1 through mTOR signaling. We tested whether isopomiferin had the ability to disrupt mTOR signaling by pre-treating cells with isopomiferin for 2 hrs, following which cells were treated with 10 ng/ml EGF for 30 minutes to induce pAKT1. […] Total AKT abundance was used as a loading control to confirm that isopomiferin was simply not suppressing expression of AKT abundance.
# [2] = system: pS6K; assay: S6K phosphorylation western blot in A549 cells; type: cell-based; settings: 24 hrs
# Text: as §1
# We then tested whether mTORC2 complex was disrupted by isopomiferin treatment. […] to enable translation. We tested whether phosphorylation of S6K was inhibited by isopomiferin by treating SK-N-Be2 cells to 10 μM and 20 μM isopomiferin for 24 hours and blotting for pS6K, using total S6K protein as a loading control. […] We then tested whether this was consistent across cell lines by performing a similar experiment in an NSCLC cell line, A549.
# [3] = system: MYC protein; assay: Western blot of MYC protein in SCLC lines NCI-H69 and NCI-H209; type: cell-based; settings: NCI-H69 and NCI-H209, 24 h
# Text: as §1
# [4] = system: MYCN transcript; assay: RT-qPCR of MYCN transcript in SK-N-Be2 cells; type: cell-based, human; settings: 15 μM, sampled 0, 3, 6, 9, 24 hrs
# Description: (§2) Reverse transcription quantitative polymerase chain reaction (RT-qPCR) was used to quantify transcript abundance of genes of interest. Total RNA was isolated from cells using the Qiaquick RNeasy isolation kit following manufacturer's instruction (QIAGEN). RNA quality and abundance was measured using a nanodrop spectrophotometer. A total of 2 μg RNA was used as a template for reverse transcription reactions. cDNA synthesis was performed using TaqMan reverse transcriptase following the manufacturer's instructions, using both oligod(T) and random hexamers as primers for RT reactions. RNAse treatment of cDNA removed any residual RNA in cDNA samples. cDNA samples were diluted 10-fold into nuclease-free dH2O, and used as the template for quantitative PCR reactions were performed in a Viia7 […] thermocycler using SYBR green and gene-specific primers (Table 1). qPCR reactions were performed using the Viia7 Real-Time PCR system (Applied Biosystems), and relative transcript abundance evaluated using the deltaCT method, using the GAPDH housekeeping gene as normalization control.
# [5] = system: MYC targets gene set; assay: GSEA of Cancer Hallmarks gene sets from PLATE-Seq profiles; type: cell-based, human; settings: SK-N-Be2 cells, 3.3 μM and 10 μM, 6 h and 24 h
# Text: We next performed gene set analysis using PLATE-Seq expression profiling by binning transcripts according to the Cancer Hallmarks gene sets found at the molecular signatures database. Curated by the Broad Institute, these fifty hallmark pathway sets represent well defined cancer processes or states associated with cancer malignancies. […] Given that isopomiferin disrupted the MycN^AMP regulatory module, it was expected that this target would be suppressed by isopomiferin. We sought to understand how the compound is affecting cells by assessing whether any other pathways are affected by the compound. […] E2F […] regulators act in a feedback loop with MycN and also regulate cell cycle progression (Strieder and Lutz 2003; Li et al. 2014), so this is an interesting finding that will be further investigated. MycN enables cancer cells to evade the immune system by suppressing antigens that can act as immune attractants necessary for detection and destruction of cancer cells (Brandetti et al. 2017; Topper et al. 2017). It is possible that enrichment of the “Inflammatory Response” gene set is a result of desuppression of these targets as a result of MycN inhibition.
# We sought to investigate biological pathways affected by isopomiferin by performing pathway enrichment analysis on a set of 50 hallmarks of cancer. […]
# [6] = Tolerability in tumor-bearing mice; type: in vivo; settings: 10 mg/kg i.p., 24 hrs
# Description: 6-week old male mice were purchased from Charles River Laboratories, and housed in Columbia University's animal control barrier facilities, and mice were allowed one week to acclimate to their new environment. To establish tumor xenografts, 10×10^6 SK-N-Be2 cells were suspended in a 200 μL volume of 50% matrigel slurry. […] Mice were kept on standard chow diet (Purina), and their cage dressing changed twice weekly. Animals were investigated regularly for any sign of discomfort. […] To create the stock solution of isopomiferin, 5 mg of isopomiferin (MicroSource) was dissolved into 50 μL dimethyl sulfoxide (DMSO). To this 450 μL of cyclodextrin solution was added dropwise. Cyclodextrin is dissolved as a 50% w/v solution in 40% EtOH. It is important to add the cyclodextrin slowly and with continual mixing to solubilize the compound. This solution was added to one volume of PBS and filter-sterilized. This solution was then diluted to achieve appropriate concentrations for a 200 μL volume administration at 10 mg/kg to each mouse. The solution was administered to animals via intraperitoneal injection (i.p.). […]
# The ability of the compounds to inhibit growth of MYCNA tumor xenografts was evaluated by treating tumor bearing mice with daily i.p. injections of 20 mg/kg isopomiferin or pomiferin. […] MYCN abundance was evaluated mid-experiment, following 14 days of treatment.
# [7] = system: PLK1, LIN28B, and BMI1 transcripts; assay: qPCR of downstream targets of MycN (PLK1, LIN28B, BMI1) in SK-N-Be2 cells; type: cell-based, human; settings: 10 μM, up to 24 h
# Description: as §2
# [8] = system: mutant isoform of CK2a1; assay: Cell viability after expression of mutant CK2a1 isoform; settings: versus GFP-expressing plasmid
# [9] = system: PARP and caspase3 cleavage; assay: Western blot of apoptosis hallmarks (cleaved PARP, cleaved caspase 3); type: cell-based, human; settings: SK-N-Be2 cells, 48 hrs
# Text: as §1
Structure (SMILES),pAKT accumulation / AKT (Ser473) phosphoactivation [1],pAKT accumulation / AKT (Ser473) phosphoactivation ([1]; listed as Isopomiferin),pS6K [2],MYC protein abundance in SCLC lines [3],MYCN transcript abundance (RT-qPCR) [4],"Cancer Hallmarks gene set enrichment (MYC Targets, E2F Targets, G2M Checkpoint) [5]",toxicity observed in animals [6],"transcript accumulation of PLK1, LIN28B, and BMI1 [7]",resistance conferred by mutant CK2 isoform [8],induction of apoptosis (PARP and caspase3 cleavage) [9]
CC1(C)C=Cc2c(c3c(c4c(=O)c(-c5ccc(O)c(O)c5)coc24)OC(C)(C)CC3)O1 [isopomiferin],blocked pAKT accumulation in presence of EGF treatment,"inhibited phosphorylation of P70^S6K, as well as the IGF1-induced phosphoactivation of AKT (Ser473)",suppressed pS6K in A549 cells,suppressed MYC protein in both SCLC lines,transcript abundance decreased in a time-dependent manner,suppressed the MYC targets gene set; also recorded: suppressed by isopomiferin treatment in a time- and dose-dependent manner,No toxicity issues were observed,–,–,–
CC(C)=CCc1c2c(c3occ(-c4ccc(O)c(O)c4)c(=O)c3c1O)C=CC(C)(C)O2 [pomiferin],–,–,–,–,–,–,–,inhibited the transcript accumulation of three downstream targets of MycN,modest resistance,more potent inducer of apoptosis than CX-4945

# Source: patent US20220119399A1, “COMPOUNDS AND COMPOSITIONS THAT CAUSE MYCN AND/OR CMYC DEGRADATION AND METHODS OF USE THEREOF” (THE TRUSTEES OF COLUMBIA UNIVERSITY IN THE CITY OF NEW YORK, priority 2018, published 2022)
